Tests used:
[1] = system: Human kidney cancer cell line 786-O cells; format: in vivo; conditions: 786-O subcutaneous xenograft, nude mice, ADC (1) 1 mg/kg i.v. on Day 0, belzutifan 0.3 mg/kg orally once daily, five times a week for 3 weeks
Procedure: Mouse: Six-week-old female BALB/c nude mice (The Jackson Laboratory Japan, Inc.) were subjected to an experiment.
Measurement and calculation expression: The long diameter and short diameter of each tumor were measured twice a week using electronic digital calipers (CD-15CX, Mitutoyo Corp.), and the volume of the tumor was then calculated. The following expression was used in the calculation.
The anti-CDH6 antibody-drug conjugate (1) was diluted with ABS buffer (10 mM acetate buffer (pH 5.5), 5% sorbitol), and the dilution was intravenously administered at a dose of 10 mL/kg to the tail of each mouse. Belzutifan was suspended in 10% dimethyl sulfoxide, 40% polyethylene glycol 300, 5% Tween-80, and 45% physiological saline, and the suspension was administered orally at a dose of 10 mL/kg.
Human kidney cancer cell line 786-O cells purchased from ATCC (American Type Culture Collection) were suspended in Matrigel Matrix, and the cell suspension was subcutaneously inoculated at a dose of 4×10^6 cells to the right flank region of each female nude mouse. […]
Tumor growth inhibition (TGI) is calculated according to the following expression.
Change from baseline (%) (percentage change of average tumor volume on Day 21 from an average tumor volume on Day 0 as a baseline) was calculated according to the following expression, and is shown in FIG. 15.

Topoisomerase I = target: T1, Topoisomerase I (Homo sapiens, UniProt P11387); conditions: Ogitani Y. et al., Clinical Cancer Research 2016; cited from earlier work
T1 sequence (P11387 1-765): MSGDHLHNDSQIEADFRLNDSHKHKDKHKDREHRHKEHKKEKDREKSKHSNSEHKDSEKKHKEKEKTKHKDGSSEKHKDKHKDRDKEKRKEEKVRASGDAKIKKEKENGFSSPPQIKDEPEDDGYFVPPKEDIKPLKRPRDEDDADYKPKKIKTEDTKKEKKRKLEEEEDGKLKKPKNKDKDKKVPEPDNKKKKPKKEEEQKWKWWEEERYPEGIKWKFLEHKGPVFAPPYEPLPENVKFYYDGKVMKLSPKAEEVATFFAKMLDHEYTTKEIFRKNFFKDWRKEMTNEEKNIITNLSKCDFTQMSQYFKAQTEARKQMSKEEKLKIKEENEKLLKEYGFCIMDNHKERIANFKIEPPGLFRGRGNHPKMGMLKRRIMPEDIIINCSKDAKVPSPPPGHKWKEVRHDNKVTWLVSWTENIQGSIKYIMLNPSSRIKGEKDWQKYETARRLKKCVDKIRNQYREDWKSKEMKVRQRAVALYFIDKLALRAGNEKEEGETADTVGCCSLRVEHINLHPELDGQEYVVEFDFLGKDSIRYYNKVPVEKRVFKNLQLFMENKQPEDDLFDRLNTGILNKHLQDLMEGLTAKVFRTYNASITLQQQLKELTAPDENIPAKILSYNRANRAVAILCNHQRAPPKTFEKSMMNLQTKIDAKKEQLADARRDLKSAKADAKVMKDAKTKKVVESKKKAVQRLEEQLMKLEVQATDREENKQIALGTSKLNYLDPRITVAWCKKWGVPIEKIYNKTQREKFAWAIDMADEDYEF

SMILES | Tumor growth inhibition (TGI) ([1]; Day 21) [%] | Change from baseline (%) (percentage change of average tumor volume on Day 21 from average tumor volume on Day 0) ([1]; Day 21 vs Day 0) | Topoisomerase I inhibitory effect (Topoisomerase I)
CS(=O)(=O)c1ccc(Oc2cc(F)cc(C#N)c2)c2c1[C@H](O)[C@H](F)[C@@H]2F [Belzutifan, belzutifan] | 29 | 53 | –
CC[C@@]1(O)C(=O)OCc2c1cc1n(c2=O)Cc2c-1nc1cc(F)c(C)c3c1c2[C@@H](NC(=O)CO)CC3 [compound (A)] | – | – | confirmed to have a topoisomerase I inhibitory effect

Reference: US20260248938A1, “COMBINATION OF ANTI-CDH6 ANTIBODY-DRUG CONJUGATE AND HIF-2alpha INHIBITOR” (DAIICHI SANKYO COMPANY, LIMITED, priority 2023, published 2026)
